# Measured values taken from patent US20260265249A1, “PHARMACEUTICALLY ACCEPTABLE SALT AND CRYSTAL FORM OF 1,4-DIHYDRO-1,6-NAPHTHYRIDINE AMIDE COMPOUND AND PREPARATION METHOD THEREFOR” (JIANGSU HENGRUI PHARMACEUTICALS CO., LTD., priority 2023, published 2026).
# Experiments:
# Type in all cases: physicochemical
# [1] = Influencing factor stability study (open containers; light, high temperature, high humidity; 30 days)
# [2] = DVS (dynamic vapor sorption) hygroscopicity test
# Excerpt: According to the description of hygroscopicity characteristics and the definitions of hygroscopic weight gains in “General Rule 9103, Guidelines for Hygroscopicity” in the Chinese Pharmacopoeia, Volume IV, 2015 Edition, • deliquescent: sufficient water is absorbed to form a liquid; • extremely hygroscopic: the hygroscopic weight gain is not less than 15%; • hygroscopic: the hygroscopic weight gain is less than 15% but not less than 2%; • slightly hygroscopic: the hygroscopic weight gain is less than 2% but not less than 0.2%; • nonhygroscopic or practically nonhygroscopic: the hygroscopic weight gain is less than 0.2%.
# TGA refers to thermogravimetric analysis: The analysis was performed using a METTLER TOLEDO TGA 2 thermogravimetric analyzer, with a temperature ramp rate of 10° C./min, specific temperature ranges shown in corresponding patterns (mostly 30-350° C.), and a nitrogen purge speed of 50 mL/min. DVS refers to dynamic vapor sorption: The analysis was performed using SMS DVS Advantage; at 25° C., the humidity was changed as follows: 50%-95%-0%-95%-50%, in steps of 10% (5% for the last step) (specific humidity ranges are shown in corresponding patterns, and those listed here were used in most cases); the criterion was dm/dt being not greater than 0.002%.
# [3] = Long-term/accelerated stability study (sealed in aluminum foil bags, 25° C./60% RH and 40° C./75% RH)
# [4] = open container, 60° C., 1 month
# [5] = open container, 60° C., 14 days
# [6] = open container, 75% RH, 1 month
# [7] = open container, 75% RH, 14 days
# [8] = open container, 92.5% RH, 1 month
# [9] = open container, 92.5% RH, 7 days
# [10] = open container, 92.5% RH, 14 days
# [11] = open container, light exposure (4500 Lux), 7 days
# [12] = open container, light exposure (4500 Lux), 14 days
# [13] = accelerated experimental conditions, 70% RH
# [14] = normal storage conditions, 25° C. and 60% RH
# [15] = 25° C.-60% RH, sealed aluminum foil bag, 1 month
# [16] = 25° C.-60% RH, sealed aluminum foil bag, 2 months
# [17] = 25° C.-60% RH, sealed aluminum foil bag, 3 months
# [18] = 25° C.-60% RH, sealed aluminum foil bag, 6 months
# [19] = 40° C.-75% RH, sealed aluminum foil bag, 1 month
# [20] = 40° C.-75% RH, sealed aluminum foil bag, 2 months
# [21] = 40° C.-75% RH, sealed aluminum foil bag, 3 months
# [22] = 40° C.-75% RH, sealed aluminum foil bag, 6 months
# [23] = open container, 40° C., 1 month
# [24] = open container, 40° C., 14 days
# [25] = open container, light exposure (4500 Lux), 1 month
# [26] = sealed aluminum foil bag, 25° C.-60% RH, 1 month
# [27] = sealed aluminum foil bag, 25° C.-60% RH, 2 months
# [28] = sealed aluminum foil bag, 25° C.-60% RH, 3 months
# [29] = sealed aluminum foil bag, 25° C.-60% RH, 6 months
# [30] = sealed aluminum foil bag, 40° C.-75% RH, 1 month
# [31] = sealed aluminum foil bag, 40° C.-75% RH, 2 months
# [32] = sealed aluminum foil bag, 40° C.-75% RH, 3 months
# [33] = sealed aluminum foil bag, 40° C.-75% RH, 6 months
# [34] = storage under long-term accelerated conditions for 6 months
smiles,measurement,setting,value
Br.[2H]C([2H])([2H])Oc1cc(C#N)ccc1[C@@H]1C(C(N)=O)=C(C)Nc2c(C)cnc(OCC)c21 [crystal form I of hydrobromide],Crystal form,[1]; [4],No change
same,Purity,[1]; [4],98.2%
same,Crystal form,"[1]; open container, 60° C., 7 days",No change
same,Purity,"[1]; open container, 60° C., 7 days",99.2%
same,Crystal form,[1]; [5],No change
same,Purity,[1]; [5],99.0%
same,Crystal form,[1]; [6],No change
same,Purity,[1]; [6],99.6%
same,Crystal form,"[1]; open container, 75% RH, 7 days",No change
same,Purity,"[1]; open container, 75% RH, 7 days",99.7%
same,Crystal form,[1]; [7],No change
same,Purity,[1]; [7],99.6%
same,Crystal form,[1]; [8],No change
same,Crystal form,[1]; [9],No change
same,Purity,[1]; [9],99.7%
same,Crystal form,[1]; [10],No change
same,Crystal form,[1]; [11],No change
same,Crystal form,[1]; [12],No change
same,hygroscopic weight gain,[2]; [13],about 13.2%
same,crystal form re-identified after the DVS test,[2],did not change
same,hygroscopic weight gain,"[2]; extreme conditions, 90% RH",about 13.8%
same,hygroscopic weight gain,[2]; [14],about 12.8%
same,Purity (%),[3]; 0 days (initial),99.7%
same,Crystal form,[3]; [15],No change
same,Purity (%),[3]; [15],99.8%
same,Crystal form,[3]; [16],No change
same,Purity (%),[3]; [16],99.7%
same,Crystal form,[3]; [17],No change
same,Purity (%),[3]; [17],99.7%
same,Crystal form,[3]; [18],No change
same,Purity (%),[3]; [18],99.7%
same,Crystal form,[3]; [19],No change
same,Purity (%),[3]; [19],99.6%
same,Crystal form,[3]; [20],No change
same,Purity (%),[3]; [20],99.4%
same,Crystal form,[3]; [21],No change
same,Purity (%),[3]; [21],97.9%
same,Crystal form,[3]; [22],No change
same,Purity (%),[3]; [22],97.9%
same,long-term/accelerated stability (conclusion),[3]; under long-term conditions,stable
[2H]C([2H])([2H])Oc1cc(C#N)ccc1[C@@H]1C(C(N)=O)=C(C)Nc2c(C)cnc(OCC)c21 [crystal form A],Crystal form,[1]; 0 days,Crystal form A
same,Purity,[1]; 0 days,99.7%
same,Crystal form,[1]; [23],No change
same,Purity,[1]; [23],99.4%
same,Crystal form,"[1]; open container, 40° C., 7 days",No change
same,Purity,"[1]; open container, 40° C., 7 days",99.6%
same,Crystal form,[1]; [24],No change
same,Purity,[1]; [24],99.6%
same,Crystal form,[1]; [4],No change
same,Purity,[1]; [4],99.4%
same,Crystal form,"[1]; open container, 60° C., 7 days",No change
same,Purity,"[1]; open container, 60° C., 7 days",99.7%
same,Crystal form,[1]; [5],No change
same,Purity,[1]; [5],99.6%
same,Crystal form,[1]; [6],No change
same,Purity,[1]; [6],99.7%
same,Crystal form,"[1]; open container, 75% RH, 7 days",No change
same,Purity,"[1]; open container, 75% RH, 7 days",99.6%
same,Crystal form,[1]; [7],No change
same,Purity,[1]; [7],99.7%
same,Crystal form,[1]; [8],No change
same,Purity,[1]; [8],99.7%
same,Crystal form,[1]; [9],No change
same,Purity,[1]; [9],99.6%
same,Crystal form,[1]; [10],No change
same,Purity,[1]; [10],99.7%
same,Crystal form,[1]; [25],No change
same,Purity,[1]; [25],97.6%
same,Crystal form,[1]; [11],No change
same,Purity,[1]; [11],99.4%
same,Crystal form,[1]; [12],No change
same,Purity,[1]; [12],99.1%
same,stability in the influencing factor experiment (conclusion),"[1]; under other conditions (40° C., 60° C., 75% RH, 92.5% RH)",stable
same,stability in the influencing factor experiment (conclusion),[1]; under the light exposure condition,degraded
same,hygroscopic weight gain,[2]; [13],about 0.7%
same,crystal form re-identified after the DVS test,[2],did not change
same,hygroscopic weight gain,"[2]; extreme conditions, 90% RH",about 1.5%
same,hygroscopic weight gain,[2]; [14],about 0.5%
same,Crystal form,[3]; 0 days,Crystal form A
same,Purity,[3]; 0 days,99.7%
same,Crystal form,[3]; [26],No change
same,Purity,[3]; [26],99.7%
same,Crystal form,[3]; [27],No change
same,Purity,[3]; [27],99.7%
same,Crystal form,[3]; [28],No change
same,Purity,[3]; [28],99.7%
same,Crystal form,[3]; [29],No change
same,Purity,[3]; [29],99.7%
same,Crystal form,[3]; [30],No change
same,Purity,[3]; [30],99.7%
same,Crystal form,[3]; [31],No change
same,Purity,[3]; [31],99.6%
same,Crystal form,[3]; [32],No change
same,Purity,[3]; [32],99.6%
same,Crystal form,[3]; [33],No change
same,Purity,[3]; [33],99.5%
same,long-term/accelerated stability (conclusion),[3]; [34],good physical and chemical stability
O=S(=O)(O)O.[2H]C([2H])([2H])Oc1cc(C#N)ccc1[C@@H]1C(C(N)=O)=C(C)Nc2c(C)cnc(OCC)c21 [crystal form a of sulfate],Crystal form,[1]; 0 days,Crystal form a of sulfate
same,Purity,[1]; 0 days,99.7%
same,Crystal form,[1]; [23],No change
same,Purity,[1]; [23],98.5%
same,Crystal form,"[1]; open container, 40° C., 7 days",No change
same,Purity,"[1]; open container, 40° C., 7 days",99.4%
same,Crystal form,[1]; [24],No change
same,Purity,[1]; [24],98.8%
same,Crystal form,[1]; [4],No change
same,Purity,[1]; [4],97.9%
same,Crystal form,"[1]; open container, 60° C., 7 days",No change
same,Purity,"[1]; open container, 60° C., 7 days",99.2%
same,Crystal form,[1]; [5],No change
same,Purity,[1]; [5],98.7%
same,Crystal form,[1]; [6],No change
same,Purity,[1]; [6],99.7%
same,Crystal form,"[1]; open container, 75% RH, 7 days",No change
same,Purity,"[1]; open container, 75% RH, 7 days",99.7%
same,Crystal form,[1]; [7],No change
same,Purity,[1]; [7],99.6%
same,Crystal form,[1]; [8],No change
same,Purity,[1]; [8],99.7%
same,Crystal form,[1]; [9],No change
same,Purity,[1]; [9],99.6%
same,Crystal form,[1]; [10],No change
same,Purity,[1]; [10],99.7%
same,Crystal form,[1]; [25],No change
same,Purity,[1]; [25],98.1%
same,Crystal form,[1]; [11],No change
same,Purity,[1]; [11],99.2%
same,Crystal form,[1]; [12],No change
same,Purity,[1]; [12],98.9%
same,hygroscopic weight gain,[2]; [13],about 1.9%
same,crystal form re-identified after the DVS test,[2],did not change
same,hygroscopic weight gain,"[2]; extreme conditions, 90% RH",about 3.1%
same,hygroscopic weight gain,[2]; [14],about 1.6%
same,Purity (%),[3]; 0 days (initial),99.7%
same,Crystal form,[3]; [15],No change
same,Purity (%),[3]; [15],99.7%
same,Crystal form,[3]; [16],No change
same,Purity (%),[3]; [16],99.7%
same,Crystal form,[3]; [17],No change
same,Purity (%),[3]; [17],99.8%
same,Crystal form,[3]; [18],No change
same,Purity (%),[3]; [18],99.7%
same,Crystal form,[3]; [19],No change
same,Purity (%),[3]; [19],99.6%
same,Crystal form,[3]; [20],No change
same,Purity (%),[3]; [20],99.7%
same,Crystal form,[3]; [21],No change
same,Purity (%),[3]; [21],99.6%
same,Crystal form,[3]; [22],No change
same,Purity (%),[3]; [22],99.6%
same,long-term/accelerated stability (conclusion),[3]; [34],good physical and chemical stability
